Assay results published in ChEMBL document CHEMBL5465560, “Selectivity Literature for EUbOPEN Chemogenomic Library” (2024).
One block for each molecule: values may come before it.

Columns and labels:
[1] = target: Interferon-induced, double-stranded RNA-activated protein kinase (Homo sapiens) (UniProt P19525); experiment: Selectivity interaction (Ambit KINOMEscan and KiNATiv profiling in Jurkat cells) EUB0000090b EIF2AK2; format: cell-based; details: at 1 µM
[2] = target: Tyrosine-protein kinase BTK (Homo sapiens, UniProt Q06187); experiment: Selectivity interaction (ActivX KiNativ screen (kinase selectivity in THP-1 cell lysates)) EUB0000639a BTK; format: subcellular; details: lysate
[3] = target: T1, NUAK family SNF1-like kinase 1 (Homo sapiens) (UniProt O60285); experiment: Selectivity interaction (Kinase panel (Invitrogen)) EUB0000639a NUAK1; details: at 200 nM
T1 sequence (whole entry): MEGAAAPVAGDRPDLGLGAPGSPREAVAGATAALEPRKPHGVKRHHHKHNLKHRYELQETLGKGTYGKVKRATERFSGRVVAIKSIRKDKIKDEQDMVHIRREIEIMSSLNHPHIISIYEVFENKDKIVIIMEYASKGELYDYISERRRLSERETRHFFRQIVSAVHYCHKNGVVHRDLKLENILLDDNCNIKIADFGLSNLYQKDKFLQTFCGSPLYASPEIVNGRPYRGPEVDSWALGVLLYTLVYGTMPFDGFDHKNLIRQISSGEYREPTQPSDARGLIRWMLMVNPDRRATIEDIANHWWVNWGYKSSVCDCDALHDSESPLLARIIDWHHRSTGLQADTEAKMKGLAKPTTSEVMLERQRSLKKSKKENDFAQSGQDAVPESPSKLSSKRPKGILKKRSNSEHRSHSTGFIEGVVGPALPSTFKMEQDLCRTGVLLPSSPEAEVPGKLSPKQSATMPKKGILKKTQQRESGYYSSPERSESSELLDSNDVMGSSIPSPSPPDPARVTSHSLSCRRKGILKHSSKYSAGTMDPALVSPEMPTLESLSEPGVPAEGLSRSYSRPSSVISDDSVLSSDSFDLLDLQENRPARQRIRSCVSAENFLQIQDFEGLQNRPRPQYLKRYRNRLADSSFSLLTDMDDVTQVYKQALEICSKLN

[4] = target: Serine/threonine-protein kinase Chk2 (Homo sapiens) (UniProt O96017); experiment: Selectivity interaction (ActivX KiNativ screen (kinase selectivity in THP-1 cell lysates)) EUB0000639a CHEK2; format: subcellular; details: lysate, at 0.2 µM
[5] = target: SRSF protein kinase 3 (Homo sapiens) (UniProt Q9UPE1); experiment: Selectivity interaction (Kinase panel (Invitrogen)) EUB0000639a SRPK3; details: at 200 nM
[6] = target: Progesterone receptor (Homo sapiens, UniProt P06401); experiment: Selectivity interaction (Progesteron receptor agonist/antagonist FRET assay, human recombinant) EUB0000877a PGR
[7] = target: T2, Inhibitor of nuclear factor kappa-B kinase subunit beta (Homo sapiens) (UniProt O14920); experiment: Selectivity interaction (Kinase panel (literature)) EUB0001199aCl IKBKB; details: at 1 µM
T2 sequence (whole entry): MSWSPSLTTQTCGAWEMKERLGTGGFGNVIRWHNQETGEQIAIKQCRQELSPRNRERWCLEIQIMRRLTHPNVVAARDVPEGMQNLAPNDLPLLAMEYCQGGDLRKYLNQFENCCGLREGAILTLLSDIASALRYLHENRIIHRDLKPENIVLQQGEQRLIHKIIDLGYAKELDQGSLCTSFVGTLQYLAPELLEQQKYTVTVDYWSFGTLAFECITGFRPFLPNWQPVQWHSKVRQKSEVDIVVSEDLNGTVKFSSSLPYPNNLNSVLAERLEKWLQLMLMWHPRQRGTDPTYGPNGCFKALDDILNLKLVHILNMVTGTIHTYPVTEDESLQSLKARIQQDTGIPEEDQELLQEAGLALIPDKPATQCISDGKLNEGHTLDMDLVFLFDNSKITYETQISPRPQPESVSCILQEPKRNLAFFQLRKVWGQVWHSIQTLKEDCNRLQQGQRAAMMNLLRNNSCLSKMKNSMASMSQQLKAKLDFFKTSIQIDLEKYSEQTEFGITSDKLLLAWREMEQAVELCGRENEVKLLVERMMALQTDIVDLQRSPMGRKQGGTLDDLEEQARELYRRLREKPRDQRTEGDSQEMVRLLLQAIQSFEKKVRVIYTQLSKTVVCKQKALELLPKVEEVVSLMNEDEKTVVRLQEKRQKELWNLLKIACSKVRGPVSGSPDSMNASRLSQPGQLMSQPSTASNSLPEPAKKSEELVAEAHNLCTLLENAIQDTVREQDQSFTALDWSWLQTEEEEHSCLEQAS

[8] = target: Ribosomal protein S6 kinase beta-2 (Homo sapiens) (UniProt Q9UBS0); experiment: Selectivity interaction (Kinase panel (Z-LYTE Assay)) EUB0001632a RPS6KB2; details: at 10 µM
[9] = target: T3, Muscarinic acetylcholine receptor M1 (Homo sapiens) (UniProt P11229); experiment: Selectivity interaction (Eurofins CEREP Diversity Profile (receptors and ion channels)) EUB0000279b CHRM1; details: at 10 µM
T3 sequence (whole entry): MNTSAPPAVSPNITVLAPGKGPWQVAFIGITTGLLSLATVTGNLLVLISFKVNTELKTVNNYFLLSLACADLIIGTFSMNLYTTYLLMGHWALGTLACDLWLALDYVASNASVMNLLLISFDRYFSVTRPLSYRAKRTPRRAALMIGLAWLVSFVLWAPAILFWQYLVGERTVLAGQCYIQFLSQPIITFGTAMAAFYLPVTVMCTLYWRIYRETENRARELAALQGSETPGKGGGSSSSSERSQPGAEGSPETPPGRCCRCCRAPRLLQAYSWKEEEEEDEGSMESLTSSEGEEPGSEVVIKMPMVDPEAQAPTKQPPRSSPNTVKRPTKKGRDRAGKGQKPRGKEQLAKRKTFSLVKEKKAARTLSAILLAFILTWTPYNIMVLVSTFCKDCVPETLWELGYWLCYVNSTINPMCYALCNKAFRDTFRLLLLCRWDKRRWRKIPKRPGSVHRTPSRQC

[10] = target: NT-3 growth factor receptor (Homo sapiens, UniProt Q16288); experiment: Selectivity interaction (KinomeScan (DiscoverX)) EUB0000618a NTRK3; details: at 10 µM
Chain of NT-3 growth factor receptor (Q16288 32-839 limits assumed): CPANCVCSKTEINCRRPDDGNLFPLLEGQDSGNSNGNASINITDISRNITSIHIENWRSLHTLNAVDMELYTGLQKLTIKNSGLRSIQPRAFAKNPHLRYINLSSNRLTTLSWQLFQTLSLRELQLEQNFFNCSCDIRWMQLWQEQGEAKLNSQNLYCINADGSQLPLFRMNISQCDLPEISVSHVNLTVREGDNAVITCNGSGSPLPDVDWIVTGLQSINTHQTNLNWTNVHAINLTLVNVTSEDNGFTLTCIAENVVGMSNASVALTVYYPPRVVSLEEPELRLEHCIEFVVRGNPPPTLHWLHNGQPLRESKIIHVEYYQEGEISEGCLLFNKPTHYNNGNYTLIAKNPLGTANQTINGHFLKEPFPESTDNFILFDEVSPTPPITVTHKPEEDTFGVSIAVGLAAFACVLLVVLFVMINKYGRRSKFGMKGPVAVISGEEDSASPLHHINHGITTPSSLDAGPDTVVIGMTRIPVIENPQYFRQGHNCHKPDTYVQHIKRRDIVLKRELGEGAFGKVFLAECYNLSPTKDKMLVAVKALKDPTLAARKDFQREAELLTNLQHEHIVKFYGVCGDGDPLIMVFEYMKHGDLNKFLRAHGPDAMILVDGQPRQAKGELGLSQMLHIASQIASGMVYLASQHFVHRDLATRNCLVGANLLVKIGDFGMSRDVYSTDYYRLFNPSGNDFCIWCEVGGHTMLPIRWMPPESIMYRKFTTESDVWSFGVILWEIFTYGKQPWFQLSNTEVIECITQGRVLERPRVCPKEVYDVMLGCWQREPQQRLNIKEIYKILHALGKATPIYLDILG

Chain of Tyrosine-protein kinase BTK (Q06187 whole entry): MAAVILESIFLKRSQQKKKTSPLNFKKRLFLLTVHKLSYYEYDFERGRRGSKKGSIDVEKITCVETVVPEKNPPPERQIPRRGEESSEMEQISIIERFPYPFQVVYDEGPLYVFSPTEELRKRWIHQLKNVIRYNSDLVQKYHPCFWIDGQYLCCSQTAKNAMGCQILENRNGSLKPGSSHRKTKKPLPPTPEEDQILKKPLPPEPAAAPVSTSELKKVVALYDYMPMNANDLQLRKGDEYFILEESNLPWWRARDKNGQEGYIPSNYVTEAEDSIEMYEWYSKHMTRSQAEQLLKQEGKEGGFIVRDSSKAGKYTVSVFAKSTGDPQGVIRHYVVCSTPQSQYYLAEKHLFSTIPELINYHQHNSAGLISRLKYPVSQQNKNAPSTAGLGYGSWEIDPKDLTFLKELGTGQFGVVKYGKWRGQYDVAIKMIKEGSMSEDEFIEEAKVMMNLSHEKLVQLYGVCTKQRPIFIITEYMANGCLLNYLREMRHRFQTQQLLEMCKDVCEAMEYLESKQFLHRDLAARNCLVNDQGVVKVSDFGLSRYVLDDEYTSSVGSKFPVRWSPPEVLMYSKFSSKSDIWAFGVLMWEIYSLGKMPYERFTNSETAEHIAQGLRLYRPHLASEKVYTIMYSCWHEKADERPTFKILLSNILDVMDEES
Chain of Interferon-induced, double-stranded RNA-activated protein kinase (Homo sapiens) (P19525 whole entry): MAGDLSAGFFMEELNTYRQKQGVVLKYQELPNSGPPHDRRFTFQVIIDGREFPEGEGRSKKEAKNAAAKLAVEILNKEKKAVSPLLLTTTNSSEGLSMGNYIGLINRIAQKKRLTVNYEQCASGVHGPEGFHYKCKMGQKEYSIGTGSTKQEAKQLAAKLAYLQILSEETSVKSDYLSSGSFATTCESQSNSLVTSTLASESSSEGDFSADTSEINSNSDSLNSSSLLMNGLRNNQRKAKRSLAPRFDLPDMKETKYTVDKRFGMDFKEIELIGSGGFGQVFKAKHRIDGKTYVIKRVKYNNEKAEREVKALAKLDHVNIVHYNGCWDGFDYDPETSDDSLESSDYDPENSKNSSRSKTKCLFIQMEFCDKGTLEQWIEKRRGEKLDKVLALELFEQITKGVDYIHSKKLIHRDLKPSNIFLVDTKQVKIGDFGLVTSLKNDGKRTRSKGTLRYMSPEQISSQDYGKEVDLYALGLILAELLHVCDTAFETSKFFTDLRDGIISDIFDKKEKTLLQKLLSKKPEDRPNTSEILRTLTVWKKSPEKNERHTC
Chain of Ribosomal protein S6 kinase beta-2 (Homo sapiens) (Q9UBS0 whole entry): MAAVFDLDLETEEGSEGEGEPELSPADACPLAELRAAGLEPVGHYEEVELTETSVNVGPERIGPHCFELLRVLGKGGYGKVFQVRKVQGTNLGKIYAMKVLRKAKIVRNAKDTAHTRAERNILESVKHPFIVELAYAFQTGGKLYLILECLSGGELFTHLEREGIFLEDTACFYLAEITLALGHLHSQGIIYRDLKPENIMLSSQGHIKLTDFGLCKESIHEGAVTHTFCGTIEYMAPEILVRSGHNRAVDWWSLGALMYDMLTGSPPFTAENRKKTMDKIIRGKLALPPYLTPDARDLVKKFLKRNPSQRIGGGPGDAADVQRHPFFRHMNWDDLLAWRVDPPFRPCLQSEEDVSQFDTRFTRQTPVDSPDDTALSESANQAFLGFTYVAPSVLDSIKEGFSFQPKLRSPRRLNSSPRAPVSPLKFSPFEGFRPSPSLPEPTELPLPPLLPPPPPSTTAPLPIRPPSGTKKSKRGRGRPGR
Chain of SRSF protein kinase 3 (Homo sapiens) (Q9UPE1 whole entry): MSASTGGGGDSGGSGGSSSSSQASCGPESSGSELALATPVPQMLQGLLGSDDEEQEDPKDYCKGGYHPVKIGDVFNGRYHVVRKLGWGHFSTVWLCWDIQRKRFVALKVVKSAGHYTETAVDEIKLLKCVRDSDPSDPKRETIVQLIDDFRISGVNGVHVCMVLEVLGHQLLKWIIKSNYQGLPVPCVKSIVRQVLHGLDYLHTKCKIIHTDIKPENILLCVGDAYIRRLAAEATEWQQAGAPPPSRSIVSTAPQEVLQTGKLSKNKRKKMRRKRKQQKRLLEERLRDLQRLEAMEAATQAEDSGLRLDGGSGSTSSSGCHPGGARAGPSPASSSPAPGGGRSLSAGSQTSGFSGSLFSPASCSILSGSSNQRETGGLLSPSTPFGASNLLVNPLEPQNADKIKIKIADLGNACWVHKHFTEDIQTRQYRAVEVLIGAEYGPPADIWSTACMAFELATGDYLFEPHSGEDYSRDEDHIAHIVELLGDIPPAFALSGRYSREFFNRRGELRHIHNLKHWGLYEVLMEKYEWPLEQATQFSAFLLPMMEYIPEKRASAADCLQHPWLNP
Chain of Progesterone receptor (P06401 whole entry): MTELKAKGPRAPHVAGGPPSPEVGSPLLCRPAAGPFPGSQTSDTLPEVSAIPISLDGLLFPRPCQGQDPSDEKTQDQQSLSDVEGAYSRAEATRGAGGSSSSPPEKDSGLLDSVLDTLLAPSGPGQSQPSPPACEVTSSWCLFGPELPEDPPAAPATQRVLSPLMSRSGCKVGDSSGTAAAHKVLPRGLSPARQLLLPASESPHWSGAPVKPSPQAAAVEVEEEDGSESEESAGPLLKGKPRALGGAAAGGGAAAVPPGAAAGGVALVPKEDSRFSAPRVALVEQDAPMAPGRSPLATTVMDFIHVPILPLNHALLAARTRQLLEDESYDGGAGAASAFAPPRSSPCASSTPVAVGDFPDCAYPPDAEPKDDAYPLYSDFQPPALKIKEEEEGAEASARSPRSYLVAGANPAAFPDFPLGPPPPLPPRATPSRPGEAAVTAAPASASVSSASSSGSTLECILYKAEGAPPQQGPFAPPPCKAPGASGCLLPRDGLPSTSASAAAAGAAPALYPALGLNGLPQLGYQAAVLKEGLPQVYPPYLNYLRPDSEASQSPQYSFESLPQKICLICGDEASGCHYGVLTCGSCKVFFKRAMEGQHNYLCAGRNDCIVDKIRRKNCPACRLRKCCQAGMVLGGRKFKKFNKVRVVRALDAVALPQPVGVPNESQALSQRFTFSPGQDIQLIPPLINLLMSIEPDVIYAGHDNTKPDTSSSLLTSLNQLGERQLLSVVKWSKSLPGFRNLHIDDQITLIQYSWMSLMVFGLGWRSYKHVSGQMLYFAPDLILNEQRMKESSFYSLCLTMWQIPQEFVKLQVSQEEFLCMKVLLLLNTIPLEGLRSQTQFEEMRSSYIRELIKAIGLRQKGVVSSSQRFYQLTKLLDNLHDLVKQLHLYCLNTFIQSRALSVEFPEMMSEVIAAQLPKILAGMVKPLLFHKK
Chain of Serine/threonine-protein kinase Chk2 (Homo sapiens) (O96017 whole entry): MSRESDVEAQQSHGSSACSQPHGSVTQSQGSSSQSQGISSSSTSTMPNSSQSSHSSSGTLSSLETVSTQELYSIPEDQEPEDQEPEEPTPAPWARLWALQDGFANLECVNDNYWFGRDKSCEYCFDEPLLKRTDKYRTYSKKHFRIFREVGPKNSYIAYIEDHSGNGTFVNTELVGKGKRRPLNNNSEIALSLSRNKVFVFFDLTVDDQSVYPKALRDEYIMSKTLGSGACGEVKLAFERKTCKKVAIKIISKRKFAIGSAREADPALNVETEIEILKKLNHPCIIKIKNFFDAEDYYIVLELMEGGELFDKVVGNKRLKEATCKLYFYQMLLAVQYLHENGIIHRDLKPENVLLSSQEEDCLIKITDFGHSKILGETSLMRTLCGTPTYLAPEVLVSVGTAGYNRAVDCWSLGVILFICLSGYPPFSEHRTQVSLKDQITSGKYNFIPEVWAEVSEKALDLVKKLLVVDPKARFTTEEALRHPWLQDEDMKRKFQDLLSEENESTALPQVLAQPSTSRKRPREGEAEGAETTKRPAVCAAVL

Compound: CN(C)C/C=C/C(=O)Nc1ccc(C(=O)N2CCCC(Nc3ncc(Cl)c(-c4c[nH]c5ccccc45)n3)C2)cc1 (centres undefined)
% of control [1]: 92%

Compound: CCC(=O)N1CC[C@H](Nc2ncnc3c2CN(c2cnc(OC)c(C(F)(F)F)c2)CC3)C1 [LENIOLISIB]
IC50 [6]: > 30 µM

Compound: O[C@H]1CC[C@H](Nc2ncc3nc(Nc4c(F)cc(F)cc4F)n([C@H]4CCOC4)c3n2)CC1
% of control [10]: 100%

Further lines, results first:

% of inhibition ([2]; at 0.01 µM): -9.7%
% of inhibition ([2]; at 0.04 µM): -8.8%
% of inhibition ([2]; at 0.2 µM): 2.6%
% of inhibition ([2]; at 1 µM): 11.9%
% of inhibition ([2]; at 5 µM): 0.7%
% of inhibition [3]: 2.96%
% of inhibition [4]: -0.3%
% of inhibition [5]: 8.65%
Compound: CC[C@@H]1[C@H](F)C(=O)N[C@@H]1COc1nccc2cc(C(N)=O)c(OC)cc12 [ZIMLOVISERTIB]

% of inhibition [7]: 4%
Compound: CN1Cc2nccc(-c3cn(C)nc3-c3ccc(F)cc3)c2C1=O

% of control [8]: 3.53%
Compound: Cn1cc(-n2cnc3c(NCc4nc5cc(Cl)c(Cl)cc5[nH]4)nc(N4CCOCC4)nc32)cn1

% of control [9]: 115%
Compound: CC(=O)c1cc(-c2ccccc2OCC2CC2)c2ncccn12
